These results are taken from PMC5218480 (PLoS ONE, 2017).

Each structure is given as a SMILES string.

This assay deals with MV-4-11 cells. As to the kind of experiment: Gene expression microarray analysis (Affymetrix PrimeView) and GSEA. The class given is cell-based, human. Also on record: RFU PODN (11730768_x_at) / Fold change /veh PODN (11730768_x_at) / RFU LINC00158 (11744669_a_at) / Fold change /veh LINC00158 (11744669_a_at) / RFU DUSP10 (11751237_a_at) / Fold change /veh DUSP10 (11751237_a_at) / RFU ID3 (11757404_x_at) / Fold change /veh ID3 (11757404_x_at) / RFU PLEKHG5 (11737974_s_at) / Fold change /veh PLEKHG5 (11737974_s_at) / RFU LRRC4B (11730491_at) / Fold change /veh LRRC4B (11730491_at) / RFU GIMAP4 (11747438_a_at) / Fold change /veh GIMAP4 (11747438_a_at) / RFU KRT8 (11758183_x_at) / Fold change /veh KRT8 (11758183_x_at) / RFU CNN1 (11734310_a_at) / Fold change /veh CNN1 (11734310_a_at) / RFU VPS37D (11726825_at) / Fold change /veh VPS37D (11726825_at) / RFU C10orf10 (11716522_x_at) / Fold change /veh C10orf10 (11716522_x_at) / RFU KIR2DL2 /// KIR2DL4 /// KIR2DL5A /// KIR2DL5B /// KIR2DS1 /// KIR2DS2 /// KIR2DS3 /// KIR2DS4 /// KIR3DL3 /// KIR3DL3 /// KIR3DS1 (11738374_at) / Fold change /veh KIR2DL2 /// KIR2DL4 /// KIR2DL5A /// KIR2DL5B /// KIR2DS1 /// KIR2DS2 /// KIR2DS3 /// KIR2DS4 /// KIR3DL3 /// KIR3DL3 /// KIR3DS1 (11738374_at) / RFU C1QL1 (11718748_at) / Fold change /veh C1QL1 (11718748_at) / RFU TMPRSS4 (11747572_a_at) / Fold change /veh TMPRSS4 (11747572_a_at) / RFU HAMP (11756126_x_at) / Fold change /veh HAMP (11756126_x_at) / RFU RNFT2 (11725882_a_at) / Fold change /veh RNFT2 (11725882_a_at) / RFU NR4A2 (11747474_a_at) / Fold change /veh NR4A2 (11747474_a_at) / RFU ABCC12 (11746883_a_at) / Fold change /veh ABCC12 (11746883_a_at) / RFU TMEM136 (11760407_x_at) / Fold change /veh TMEM136 (11760407_x_at) / RFU CLDN22 /// WWC2 (11732394_at) / Fold change /veh CLDN22 /// WWC2 (11732394_at) / RFU HLA-DPB1 (11760878_x_at) / Fold change /veh HLA-DPB1 (11760878_x_at) / RFU SPINT1 (11716480_a_at) / Fold change /veh SPINT1 (11716480_a_at) / RFU GAP43 (11754022_s_at) / Fold change /veh GAP43 (11754022_s_at) / RFU A4GNT (11735810_at) / Fold change /veh A4GNT (11735810_at) / RFU PRB3 (11715151_x_at) / Fold change /veh PRB3 (11715151_x_at) / RFU TUBB4B (11761932_at) / Fold change /veh TUBB4B (11761932_at) / RFU CAPN14 (11732068_a_at) / Fold change /veh CAPN14 (11732068_a_at) / RFU TMCC2 (11721928_a_at) / Fold change /veh TMCC2 (11721928_a_at) / RFU IRGQ (11745062_a_at) / Fold change /veh IRGQ (11745062_a_at) / RFU FAM174B (11720279_a_at) / Fold change /veh FAM174B (11720279_a_at) / RFU TMPRSS4 (11748680_a_at) / Fold change /veh TMPRSS4 (11748680_a_at) / RFU FAM212B (11763350_a_at) / Fold change /veh FAM212B (11763350_a_at) / RFU PLEKHG5 (11743358_a_at) / Fold change /veh PLEKHG5 (11743358_a_at) / RFU ZSCAN30 (11745921_a_at) / Fold change /veh ZSCAN30 (11745921_a_at) / RFU CMKLR1 (11741424_a_at) / Fold change /veh CMKLR1 (11741424_a_at) / RFU LOC101060620 /// MAPK8IP1 (11723275_at) / Fold change /veh LOC101060620 /// MAPK8IP1 (11723275_at) / RFU SPTSSB (11747773_x_at) / Fold change /veh SPTSSB (11747773_x_at) / RFU PRSS12 (11739890_at) / Fold change /veh PRSS12 (11739890_at) / RFU BIN1 (11741810_x_at) / Fold change /veh BIN1 (11741810_x_at) / RFU WNT11 (11732464_a_at) / Fold change /veh WNT11 (11732464_a_at) / RFU C10orf10 (11716521_a_at) / Fold change /veh C10orf10 (11716521_a_at) / RFU C5orf56 (11738089_at) / Fold change /veh C5orf56 (11738089_at) / RFU CYB561 (11721691_x_at) / Fold change /veh CYB561 (11721691_x_at) / RFU ANKRD19P (11752326_a_at) / Fold change /veh ANKRD19P (11752326_a_at) / RFU OR2T12 /// OR2T33 /// OR2T8 (11738714_s_at) / Fold change /veh OR2T12 /// OR2T33 /// OR2T8 (11738714_s_at) / RFU VCAN (11748164_a_at) / Fold change /veh VCAN (11748164_a_at) / RFU JSRP1 (11732532_at) / Fold change /veh JSRP1 (11732532_at) / RFU KRTAP10-11 (11738290_x_at) / Fold change /veh KRTAP10-11 (11738290_x_at) / RFU MYO3A (11730013_a_at) / Fold change /veh MYO3A (11730013_a_at) / RFU EBF3 (11725865_a_at) / Fold change /veh EBF3 (11725865_a_at) / RFU CAMK2N1 (11719241_x_at) / Fold change /veh CAMK2N1 (11719241_x_at) / RFU C5orf56 (11738088_a_at) / Fold change /veh C5orf56 (11738088_a_at) / RFU OLFML3 (11715873_a_at) / Fold change /veh OLFML3 (11715873_a_at) / RFU LOC100653217 /// NTM (11731650_a_at) / Fold change /veh LOC100653217 /// NTM (11731650_a_at) / RFU MAPK11 (11762145_a_at) / Fold change /veh MAPK11 (11762145_a_at) / RFU FIZ1 (11724087_x_at) / Fold change /veh FIZ1 (11724087_x_at) / RFU OASL (11726364_x_at) / Fold change /veh OASL (11726364_x_at) / RFU SOX15 (11748057_x_at) / Fold change /veh SOX15 (11748057_x_at) / RFU CD79A (11719716_a_at) / Fold change /veh CD79A (11719716_a_at) / RFU HIST1H1D (11736915_at) / Fold change /veh HIST1H1D (11736915_at) / RFU CASKIN2 (11723855_a_at) / Fold change /veh CASKIN2 (11723855_a_at) / RFU LOC730098 (11760151_x_at) / Fold change /veh LOC730098 (11760151_x_at) / RFU OR4N2 (11742367_at) / Fold change /veh OR4N2 (11742367_at) / RFU PRRT2 (11749266_a_at) / Fold change /veh PRRT2 (11749266_a_at) / RFU SNX32 (11753110_a_at) / Fold change /veh SNX32 (11753110_a_at) / RFU CDHR5 (11726645_a_at) / Fold change /veh CDHR5 (11726645_a_at) / RFU RCAN1 (11760418_a_at) / Fold change /veh RCAN1 (11760418_a_at) / RFU FAM167A (11723789_a_at) / Fold change /veh FAM167A (11723789_a_at) / RFU FAM26E (11764081_at) / Fold change /veh FAM26E (11764081_at) / RFU ISYNA1 (11749810_s_at) / Fold change /veh ISYNA1 (11749810_s_at) / RFU ACY1 (11761880_at) / Fold change /veh ACY1 (11761880_at) / RFU 11764098_at / Fold change /veh 11764098_at / RFU SAMD14 (11745864_x_at) / Fold change /veh SAMD14 (11745864_x_at) / RFU NPB (11741838_a_at) / Fold change /veh NPB (11741838_a_at) / RFU TMPRSS6 (11731388_a_at) / Fold change /veh TMPRSS6 (11731388_a_at) / RFU KRTAP10-2 (11738614_at) / Fold change /veh KRTAP10-2 (11738614_at) / RFU ARHGAP8 /// PRR5-ARHGAP8 (11727945_x_at) / Fold change /veh ARHGAP8 /// PRR5-ARHGAP8 (11727945_x_at) / RFU KRTAP5-7 /// NADSYN1 (11734609_at) / Fold change /veh KRTAP5-7 /// NADSYN1 (11734609_at) / RFU RASL12 (11751679_a_at) / Fold change /veh RASL12 (11751679_a_at) / RFU CDKN2B (11736163_a_at) / Fold change /veh CDKN2B (11736163_a_at) / RFU PRF1 (11729649_at) / Fold change /veh PRF1 (11729649_at) / RFU, ZNF638 /// ZNF638-IT1 / Fold change vs veh, ZNF638 /// ZNF638-IT1 / RFU, PANK3 / Fold change vs veh, PANK3 / RFU, SH3YL1 / Fold change vs veh, SH3YL1 / RFU, ZEB2 / Fold change vs veh, ZEB2 / RFU, NRIP1 / Fold change vs veh, NRIP1 / RFU, PTTG1IP / Fold change vs veh, PTTG1IP / RFU, CAPN2 / Fold change vs veh, CAPN2 / RFU, MED14 / Fold change vs veh, MED14 / RFU, SNORA58 / Fold change vs veh, SNORA58 / RFU, C1orf63 / Fold change vs veh, C1orf63 / RFU, LRRFIP1 / Fold change vs veh, LRRFIP1 / RFU, NDUFAF7 / Fold change vs veh, NDUFAF7 / RFU, SLC12A2 / Fold change vs veh, SLC12A2 / RFU, IBTK / Fold change vs veh, IBTK / RFU, ESF1 / Fold change vs veh, ESF1 / Fold change vs veh, TMEM50B / RFU, TAOK1 / Fold change vs veh, TAOK1 / RFU, ACBD3 / Fold change vs veh, ACBD3 / RFU, TMA16 / Fold change vs veh, TMA16 / RFU, RWDD3 / Fold change vs veh, RWDD3 / RFU, BCAT1 / Fold change vs veh, BCAT1 / RFU, EDEM3 / Fold change vs veh, EDEM3 / RFU, TMEM33 / Fold change vs veh, TMEM33 / RFU, WDR75 / Fold change vs veh, WDR75 / RFU, AHCTF1 / Fold change vs veh, AHCTF1 / RFU, TFRC / Fold change vs veh, TFRC / RFU, ZDHHC17 / Fold change vs veh, ZDHHC17 / RFU, NOM1 / Fold change vs veh, NOM1 / RFU, ARL8B / Fold change vs veh, ARL8B / RFU, ZBTB11 / Fold change vs veh, ZBTB11 / RFU, TAMM41 / Fold change vs veh, TAMM41 / RFU, KIAA1704 /// LOC100996395 / Fold change vs veh, KIAA1704 /// LOC100996395 / RFU, ING1 / Fold change vs veh, ING1 / RFU, TRMT61B / Fold change vs veh, TRMT61B / RFU, FUBP3 / Fold change vs veh, FUBP3 / RFU, TP53 / Fold change vs veh, TP53 / RFU, TNKS2 / Fold change vs veh, TNKS2 / RFU, ZFP14 / Fold change vs veh, ZFP14 / RFU, ACTR2 / Fold change vs veh, ACTR2 / RFU, PPP3R1 / Fold change vs veh, PPP3R1 / RFU, PIK3R1 / Fold change vs veh, PIK3R1 / RFU, HNRNPA1 / Fold change vs veh, HNRNPA1 / RFU, RNF170 / Fold change vs veh, RNF170 / RFU, ZNF28 / Fold change vs veh, ZNF28 / RFU, RNGTT / Fold change vs veh, RNGTT / RFU, OGT / Fold change vs veh, OGT / RFU, BRD1 / Fold change vs veh, BRD1 / RFU, MARS / Fold change vs veh, MARS / RFU, ZNF655 / Fold change vs veh, ZNF655 / RFU, FAHD1 / Fold change vs veh, FAHD1 / RFU, BDP1 / Fold change vs veh, BDP1 / RFU, LRRCC1 / Fold change vs veh, LRRCC1 / RFU, ARID1A / Fold change vs veh, ARID1A / RFU, ZNF146 / Fold change vs veh, ZNF146 / RFU, ZNF330 / Fold change vs veh, ZNF330 / RFU, GPN3 / Fold change vs veh, GPN3 / RFU, C9orf123 / Fold change vs veh, C9orf123 / RFU, N4BP2L2 / Fold change vs veh, N4BP2L2 / RFU, ARFIP1 / Fold change vs veh, ARFIP1 / RFU, FAM179B / Fold change vs veh, FAM179B / RFU, BCL10 / Fold change vs veh, BCL10 / RFU, UHRF1BP1L / Fold change vs veh, UHRF1BP1L / RFU, BET1 / Fold change vs veh, BET1 / RFU, CNOT2 / Fold change vs veh, CNOT2 / RFU, ZNF268 / Fold change vs veh, ZNF268 / Fold change vs veh, ZNF507 / RFU, DGCR2 / Fold change vs veh, DGCR2 / RFU, WDSUB1 / Fold change vs veh, WDSUB1 / Fold change vs veh, HSP90B1 /// MIR3652 / RFU, ADSS / Fold change vs veh, ADSS / RFU, GK / Fold change vs veh, GK / RFU, ZNF148 / Fold change vs veh, ZNF148 / RFU, TAF9 / Fold change vs veh, TAF9 / RFU, SLC1A5 / Fold change vs veh, SLC1A5 / RFU, SLMO2 / Fold change vs veh, SLMO2 / RFU, ABCC4 / Fold change vs veh, ABCC4 / RFU, LOC101060439 /// RAP1B / Fold change vs veh, LOC101060439 /// RAP1B / RFU, RFX7 / Fold change vs veh, RFX7 / RFU, GTPBP10 / Fold change vs veh, GTPBP10 / RFU, CNEP1R1 / Fold change vs veh, CNEP1R1 / RFU, BIVM-ERCC5 /// ERCC5 / Fold change vs veh, BIVM-ERCC5 /// ERCC5 / RFU, ILF3 / Fold change vs veh, ILF3 / RFU 11762660_at / Fold change /veh 11762660_at / RFU VCAN (11757783_s_at) / Fold change /veh VCAN (11757783_s_at) / RFU DDX43 (11728927_at) / Fold change /veh DDX43 (11728927_at) / RFU KRT8 (11758188_x_at) / Fold change /veh KRT8 (11758188_x_at) / RFU NKD1 (11759106_at) / Fold change /veh NKD1 (11759106_at) / RFU SRD5A1 (11742802_a_at) / Fold change /veh SRD5A1 (11742802_a_at) / RFU TPSAB1 /// TPSB2 (11721975_s_at) / Fold change /veh TPSAB1 /// TPSB2 (11721975_s_at) / RFU GSTM3 (11746129_a_at) / Fold change /veh GSTM3 (11746129_a_at) / RFU IL23R (11737362_x_at) / Fold change /veh IL23R (11737362_x_at) / RFU TMEM51 (11727254_a_at) / Fold change /veh TMEM51 (11727254_a_at) / RFU PIWIL2 (11732686_x_at) / Fold change /veh PIWIL2 (11732686_x_at) / RFU ORM1 (11744905_x_at) / Fold change /veh ORM1 (11744905_x_at) / RFU CCDC152 (11743942_at) / Fold change /veh CCDC152 (11743942_at) / RFU ECM1 (11717891_a_at) / Fold change /veh ECM1 (11717891_a_at) / RFU IL23R (11748794_a_at) / Fold change /veh IL23R (11748794_a_at) / RFU TNFAIP8L3 (11732012_x_at) / Fold change /veh TNFAIP8L3 (11732012_x_at) / RFU MBOAT4 (11741988_at) / Fold change /veh MBOAT4 (11741988_at) / RFU 11764193_at / Fold change /veh 11764193_at / RFU TMEM53 (11763286_at) / Fold change /veh TMEM53 (11763286_at) / RFU MAGEB2 (11727129_at) / Fold change /veh MAGEB2 (11727129_at) / RFU TMEM200A (11744735_a_at) / Fold change /veh TMEM200A (11744735_a_at) / RFU CCDC152 (11751479_a_at) / Fold change /veh CCDC152 (11751479_a_at) / RFU FAM211A (11726209_a_at) / Fold change /veh FAM211A (11726209_a_at) / RFU RGS16 (11746705_a_at) / Fold change /veh RGS16 (11746705_a_at) / RFU VCAN (11755009_s_at) / Fold change /veh VCAN (11755009_s_at) / RFU RHOB (11743442_s_at) / Fold change /veh RHOB (11743442_s_at) / RFU RGS16 (11720943_a_at) / Fold change /veh RGS16 (11720943_a_at) / RFU RGS16 (11720944_at) / Fold change /veh RGS16 (11720944_at) / RFU, VPS4B / Fold change vs veh, VPS4B / RFU, CREB1 / Fold change vs veh, CREB1 / RFU, DNAJC13 / Fold change vs veh, DNAJC13 / RFU, GNAQ / Fold change vs veh, GNAQ / RFU, CDK5R1 / Fold change vs veh, CDK5R1 / RFU, ZRANB3 / Fold change vs veh, ZRANB3 / RFU, CUL4A / Fold change vs veh, CUL4A / RFU, CCNY / Fold change vs veh, CCNY / RFU, UFL1 / Fold change vs veh, UFL1 / RFU, COG3 / Fold change vs veh, COG3 / RFU, DIAPH2 / Fold change vs veh, DIAPH2 / RFU, SKA2 / Fold change vs veh, SKA2 / RFU, AFF3 / Fold change vs veh, AFF3 / RFU, LMF1 / Fold change vs veh, LMF1 / RFU, IPO11 / Fold change vs veh, IPO11 / RFU, DFFB / Fold change vs veh, DFFB / RFU, FOXP1 / Fold change vs veh, FOXP1 / RFU, CARD8 / Fold change vs veh, CARD8 / RFU, STRN3 / Fold change vs veh, STRN3 / RFU, ADK / Fold change vs veh, ADK / RFU, RASSF2 / Fold change vs veh, RASSF2 / RFU, WIPF1 / Fold change vs veh, WIPF1 / RFU, LARP1B / Fold change vs veh, LARP1B / RFU, RASA1 / Fold change vs veh, RASA1 / RFU, RB1 / Fold change vs veh, RB1 / RFU, PPFIA1 / Fold change vs veh, PPFIA1 / RFU, MAT2A / Fold change vs veh, MAT2A / RFU, CCT5 / Fold change vs veh, CCT5 / RFU, WDR92 / Fold change vs veh, WDR92 / RFU, CUX1 / Fold change vs veh, CUX1 / RFU, TTC7A / Fold change vs veh, TTC7A / RFU, TMEM135 / Fold change vs veh, TMEM135 / RFU, DEPTOR / Fold change vs veh, DEPTOR / RFU, CPM / Fold change vs veh, CPM / RFU, DNAJB6 / Fold change vs veh, DNAJB6 / RFU, CACNA2D3 / Fold change vs veh, CACNA2D3 / RFU, DTX4 / Fold change vs veh, DTX4 / RFU, TFCP2 / Fold change vs veh, TFCP2 / RFU, GMCL1 /// GMCL1P1 / Fold change vs veh, GMCL1 /// GMCL1P1 / RFU, AEBP2 / Fold change vs veh, AEBP2 / RFU, SNHG1 /// SNORD22 /// SNORD25 /// SNORD26 /// SNORD27 /// SNORD28 /// SNORD29 /// SNORD31 / Fold change vs veh, SNHG1 /// SNORD22 /// SNORD25 /// SNORD26 /// SNORD27 /// SNORD28 /// SNORD29 /// SNORD31 / Fold change (Aza/veh), C12orf56 (ProbeSet 11735607_a_at) / Fold change (ACY-1035/veh), C12orf56 (ProbeSet 11735607_a_at) / Fold change (Aza/veh), FGFR1OP (ProbeSet 11751329_s_at) / Fold change (ACY-1035/veh), FGFR1OP (ProbeSet 11751329_s_at) / Fold change (Aza/veh), VPS36 (ProbeSet 11739960_a_at) / Fold change (ACY-1035/veh), VPS36 (ProbeSet 11739960_a_at) / RFU SYPL1 (11715823_x_at) / Fold change /veh SYPL1 (11715823_x_at) / RFU IGFBP7 (11715501_s_at) / Fold change /veh IGFBP7 (11715501_s_at) / RFU REEP3 (11722064_at) / Fold change /veh REEP3 (11722064_at) / RFU IGLL1 (11728026_x_at) / Fold change /veh IGLL1 (11728026_x_at): dose or concentration left out as unconfirmed. The settings on record: ProbeSet 11716891_at; LIST B.

For `Nc1ccc(-c2cccs2)cc1NC(=O)c1ccc2c(c1)cc(C1CC1)n2CCN1CCOCC1` [ACY-1035], the “Fold change vs veh, C9orf123” value is on record as 1.03.
